# Test results from patent publication US20230174523A1, “BENZENESULFONAMIDE DERIVATIVES AS TRAP1 MODULATORS AND USES THEREOF” (Amathus Therapeutics, Inc., priority 2020, published 2023).
# Biological target: T1, TRAP1 enzyme (Homo sapiens, UniProt Q12931)
# T1 sequence (Q12931 60-704): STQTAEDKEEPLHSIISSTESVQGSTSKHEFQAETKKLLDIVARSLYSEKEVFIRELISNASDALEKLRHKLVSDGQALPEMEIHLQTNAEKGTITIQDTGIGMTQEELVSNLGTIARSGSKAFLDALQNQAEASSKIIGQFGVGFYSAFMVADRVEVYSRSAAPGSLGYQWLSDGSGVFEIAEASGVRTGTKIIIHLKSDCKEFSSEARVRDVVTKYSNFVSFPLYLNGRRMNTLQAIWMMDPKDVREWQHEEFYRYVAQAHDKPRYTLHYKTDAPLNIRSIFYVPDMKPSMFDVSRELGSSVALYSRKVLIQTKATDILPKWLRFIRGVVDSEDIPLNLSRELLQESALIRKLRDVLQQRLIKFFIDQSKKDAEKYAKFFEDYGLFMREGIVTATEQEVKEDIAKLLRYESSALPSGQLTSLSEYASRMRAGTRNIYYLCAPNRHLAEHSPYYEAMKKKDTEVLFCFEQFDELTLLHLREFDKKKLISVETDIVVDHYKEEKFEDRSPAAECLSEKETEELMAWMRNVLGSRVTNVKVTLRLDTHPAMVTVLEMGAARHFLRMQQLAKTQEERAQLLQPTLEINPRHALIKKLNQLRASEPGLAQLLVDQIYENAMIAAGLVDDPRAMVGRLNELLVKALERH
# Assay: Malachite green phosphate assay of TRAP1 ATPase activity
# Format: biochemical
# Conditions: for EC50: TRAP1 ATPase activation, 150 nM Trap1, 20 μM ATP, geometric mean, read-out: Malachite Green Fluor DRC: GeoMean EC50; for Emax: read-out: Malachite Green Fluor DRC: Mean Emax
# Protocol: The Potency of test compounds to modulate the ATPase activity of TRAP1 enzyme was evaluated using malachite green phosphatase assay. The assay is based on quantification of the green complex formed between Malachite Green, molybdate and inorganic phosphate generated in the phosphatase reaction. Assays were performed using a Malachite Green assay kit. All the assays were carried out in a 96-well transparent plate. The buffer used was 50 mM HEPES (pH 7.5), 20 mM KCl, 4 mM MgCl2 and 0.05% BSA. 150 nM Trap1 enzyme was incubated with various concentrations of the test compound (0.78 μM-100 μM) at 37° C. for 30 mins. 20 μM ATP was added to each well (except blank wells) to start the reaction and the plate was then incubated at 37° C. for 180 mins. 10 μl of the reaction volume of each sample was then transferred to a white 384-well proxiplate in quadruplets. 2.5 μl of Malachite Green reagent was added to all the wells and the plate was equilibrated for 15 mins. The reaction was stopped by adding 12% H2SO4 and the plate was read for fluorescence at 620 nm (λex=573 nm). The amount of phosphate released was estimated from a phosphate standard curve generated at the same experimental conditions. Emax (Maximal percent activation) and EC50 (concentration of test compound for half maximal activation) were estimated by fitting the dose response data to a sigmoidal curve fitting equation using Graphpad Prism software V.7.0.
SMILES,EC50 [µM],Emax [%]
"COc1ccc(NC(=O)c2cnc(-c3ccccc3)[nH]2)cc1S(=O)(=O)N(CCOCCOCCOCCN)c1ccc(Br)cc1 [Compound 526, N-(3-(N-(2-(2-(2-(2-aminoethoxy)ethoxy)ethoxy)ethyl)-N-(4-bromophenyl)sulfamoyl)-4-methoxyphenyl)-2-phenyl-1H-imidazole-5-carboxamide]",20 to 100,> 300
COc1ccc(NC(=O)c2cnc(-c3ccccc3)[nH]2)cc1S(=O)(=O)Nc1ccncc1 [Compound 213],20 to 100,160 to 199
COc1ccc(NC(=O)c2cnc[nH]2)cc1S(=O)(=O)N(CCOCCOCCOCCN)c1ccc(Br)cc1 [Compound 546],20 to 100,160 to 199
COc1ccc(NC(=O)c2cnccc2C)cc1S(=O)(=O)Nc1c(C)cccc1C [Compound 471],20 to 100,160 to 199
O=C(Nc1cccc(S(=O)(=O)Nc2ccc(Br)cc2)c1)c1ncco1 [Compound 302],20 to 100,160 to 199
COc1ccc(NC(=O)c2cnc(-c3ccc(Cl)cc3)[nH]2)cc1S(=O)(=O)Nc1ccc(Br)cc1 [Compound 415],< 10,123 to 159
COc1ccc(NC(=O)c2ncco2)cc1S(=O)(=O)Nc1ccc(C)cc1 [Compound 307],20 to 100,160 to 199
COc1ccc(NC(=O)c2cnc(-c3ccccc3)[nH]2)cc1S(=O)(=O)N(C)c1ccc(Br)cc1 [Compound 164],20 to 100,160 to 199
COc1ccc(NC(=O)c2cnc(C(F)(F)F)[nH]2)cc1S(=O)(=O)N(CCCCCCO)c1ccc(Br)cc1 [Compound 257],20 to 100,> 300
CCCN(c1ccc(Br)cc1)S(=O)(=O)c1cccc(NC(=O)c2ncco2)c1 [Compound 303],10 to 20,160 to 199
Cc1ncoc1C(=O)Nc1cccc(S(=O)(=O)N2CCCc3cc(Cl)ccc32)c1 [Compound 429],10 to 20,200 to 300
COc1ccc(NC(=O)c2cnc[nH]2)cc1S(=O)(=O)N(CCOCCOCCBr)c1ccc(Br)cc1 [Compound 286],< 10,160 to 199
COc1ccc(NC(=O)c2cnc(C(F)(F)F)[nH]2)cc1S(=O)(=O)N1Cc2cccc(F)c2C1 [Compound 225],10 to 20,160 to 199
CC1(C)CCN(S(=O)(=O)c2cccc(NC(=O)c3cnc(-c4ccccc4)[nH]3)c2)c2ccc(Cl)cc21 [Compound 534],20 to 100,200 to 300
COc1ccc(NC(=O)c2nc(Br)ccc2C)cc1S(=O)(=O)Nc1ccc(Cl)cc1 [Compound 537],10 to 20,200 to 300
COc1ccc(NC(=O)c2cnc(C(F)(F)F)[nH]2)cc1S(=O)(=O)Nc1ccccc1 [Compound 223],10 to 20,160 to 199
O=C(Nc1ccc(OCCCCCCO)c(S(=O)(=O)Nc2ccc(Br)cc2)c1)c1cnc[nH]1 [Compound 274],10 to 20,200 to 300
COc1ccc(NC(=O)c2cn(C)c(C(F)(F)F)n2)cc1S(=O)(=O)Nc1ccc(Br)cc1 [Compound 364],20 to 100,160 to 199
COc1ccc(NC(=O)c2cnc(-c3ccccc3)[nH]2)cc1S(=O)(=O)N(CCCCCC[P+](c1ccccc1)(c1ccccc1)c1ccccc1)c1ccc(Br)cc1 [Compound 242],< 10,200 to 300
"COc1ccc(NC(=O)c2cnc[nH]2)cc1S(=O)(=O)N(CCCCCCBr)c1ccc(Br)cc1 [Compound 251, N-(3-(N-(6-bromohexyl)-N-(4-bromophenyl)sulfamoyl)-4-methoxyphenyl)-1H-imidazole-5-carboxamide]",< 10,200 to 300
O=C(Nc1cccc(S(=O)(=O)N2CCOc3ccccc32)c1)c1ncco1 [Compound 372],20 to 100,160 to 199

SMILES,EC50 [µM],Emax [%]
CCOC(=O)CCCCCN(c1ccc(Br)cc1)S(=O)(=O)c1cc(NC(=O)c2ncco2)ccc1OC [Compound 247],< 10,123 to 159
"COc1ccc(NC(=O)c2nc(-c3ccccc3)ccc2C)cc1S(=O)(=O)Nc1ccc(Cl)cc1 [Compound 565, N-(3-(N-(4-chlorophenyl)sulfamoyl)-4-methoxyphenyl)-3-methyl-6-phenylpicolinamide]",20 to 100,123 to 159
COc1ccc(NC(=O)c2ccc3cnccc3n2)cc1S(=O)(=O)Nc1c(C)cccc1C [Compound 1047],10 to 20,160 to 199
COc1ccc(NC(=O)c2cnc(C(F)(F)F)[nH]2)cc1S(=O)(=O)Nc1ccc(F)cc1C [Compound 348],20 to 100,200 to 300
COc1ccc(NC(=O)c2cnc(-c3ccccc3)o2)cc1S(=O)(=O)Nc1ccc(C(F)(F)F)cc1 [Compound 650],20 to 100,200 to 300
COc1ccc(NC(=O)c2oc(C(F)(F)F)nc2C)cc1S(=O)(=O)Nc1ccc(Br)cc1 [Compound 315],10 to 20,160 to 199
C=C(C)c1nc(C(=O)Nc2ccc(OC)c(S(=O)(=O)Nc3ccc(Cl)cc3)c2)oc1-c1ccccc1 [Compound 545],< 10,123 to 159
CCc1ccc(NC(=O)c2ncco2)cc1S(=O)(=O)Nc1ccc(C(F)(F)F)cc1 [Compound 316],20 to 100,200 to 300
CCc1ccc(NC(=O)c2ncn(C)n2)cc1S(=O)(=O)Nc1ccc(Cl)cc1 [Compound 575],20 to 100,160 to 199
"COc1ccc(NC(=O)c2cnc[nH]2)cc1S(=O)(=O)N(CCCCCCN)c1ccc(Br)cc1 [Compound 266, N-(3-(N-(6-aminohexyl)-N-(4-bromophenyl)sulfamoyl)-4-methoxyphenyl)-1H-imidazole-5-carboxamide]",< 10,160 to 199
COc1ccc(NC(=O)c2cccn2-c2ccccc2)cc1S(=O)(=O)Nc1c(C)cccc1C [Compound 1042],< 10,160 to 199
Cc1cccc(C)c1NS(=O)(=O)c1cc(NC(=O)c2cnc(-c3ccccc3)[nH]2)ccc1F [Compound 436],< 10,160 to 199
COc1ccc(NC(=O)c2cnc(C(F)(F)F)[nH]2)cc1S(=O)(=O)Nc1ccc(C(C)(C)C)cc1 [Compound 360],20 to 100,200 to 300
COc1ccc(NC(=O)c2ncc(-c3ccccc3)o2)cc1S(=O)(=O)Nc1c(C)cccc1C [Compound 423],< 10,160 to 199
Cc1ccc(NS(=O)(=O)c2cc(NC(=O)c3cnc(C(F)(F)F)[nH]3)ccc2F)cc1 [Compound 278],10 to 20,160 to 199
CC(C)c1ccc(NC(=O)c2cnc(-c3ccccc3)o2)cc1S(=O)(=O)Nc1ccc(Cl)cc1 [Compound 576],10 to 20,160 to 199
O=C(Nc1cccc(S(=O)(=O)Nc2ccc(Br)cc2)c1)c1cnc(C(F)(F)F)[nH]1 [Compound 228],10 to 20,200 to 300
COc1ccc(NC(=O)c2cnc(C(F)(F)F)[nH]2)cc1S(=O)(=O)N(CCCCCCBr)c1ccc(Br)cc1 [Compound 262],10 to 20,200 to 300
Cc1ccc(NS(=O)(=O)c2cc(NC(=O)c3ncc(-c4ccccc4)o3)ccc2CC(=O)O)cc1 [Compound 541],20 to 100,200 to 300
CCOC(=O)/C=C/c1ccc(NC(=O)c2ncc(-c3ccccc3)o2)cc1S(=O)(=O)Nc1ccc(Cl)cc1 [Compound 634],< 10,123 to 159
